Measurements as given in ChEMBL document CHEMBL3885861, “Open TG-GATES”.

Organism: Rattus norvegicus
Experiment: Open TG-GATES - Regimen: Daily Repeat
Assay type: toxicity, organism-based, Sprague-Dawley
Set-up: regimen Daily Repeat, gender Male, age 6 weeks
Conditions: in vivo, po, 6 mg/kg, route gavage, dose level High; for APTT / Bas / Eos / Fbg / Hb / Ht / Lym / MCH / MCHC / MCV / Mono / Neu / PT / Plat / RBC / Ret / WBC: tissue Blood; for KIDNEY_L / KIDNEY_R / KIDNEY_TOTAL: tissue Kidney; for LIVER: tissue Liver; for A/G / ALP / ALT / AST / BUN / CRE / Ca / Cl / DBIL / GLC / IP / K / LDH / Na / PL / RALB / TBIL / TC / TG / TP / gamma-GTP: tissue Plasma

Compound `O=NN(CCCl)C(=O)NC1CCCCC1` [LOMUSTINE] has a TERMINAL_BW (72 h, time 3 day) of 213.1 g, an APTT (72 h, time 3 day) of 16.1 s and a Bas (72 h, time 3 day) of 0%. It also gave an Eos (72 h, time 3 day) of 0.6%, a Fbg (72 h, time 3 day) of 212.8 mg/dL and a Hb (72 h, time 3 day) of 13 g/dL. The Ht (72 h, time 3 day) was 38.9%, the Lym (72 h, time 3 day) was 86% and the MCH (72 h, time 3 day) was 21.3 pg. It also gave an MCHC (72 h, time 3 day) of 33.3%, an MCV (72 h, time 3 day) of 64.1 fL and a Mono (72 h, time 3 day) of 5.6%. For the same compound, the Neu (72 h, time 3 day) was 8%, the PT (72 h, time 3 day) was 11.9 s and the Plat (72 h, time 3 day) was 114.8 x10_4/uL. It also gave an RBC (72 h, time 3 day) of 607.2 x10_4/ul, a Ret (72 h, time 3 day) of 6.1% and a WBC (72 h, time 3 day) of 100.8 x10_2/uL. For the same compound, the KIDNEY_L (72 h, time 3 day) was 1 g, the KIDNEY_R (72 h, time 3 day) was 1 g and the KIDNEY_TOTAL (72 h, time 3 day) was 2 g. The LIVER (72 h, time 3 day) was 10.2 g, the A/G (72 h, time 3 day) was 2.2 and the ALP (72 h, time 3 day) was 1003.2 IU/L. The ALT (72 h, time 3 day) was 30.4 IU/L, the AST (72 h, time 3 day) was 65 IU/L and the BUN (72 h, time 3 day) was 15.6 mg/dL. For the same compound, the CRE (72 h, time 3 day) was 0.5 mg/dL, the Ca (72 h, time 3 day) was 10.8 mg/dL and the Cl (72 h, time 3 day) was 104.8 meq/L. It also gave a DBIL (72 h, time 3 day) of 0.028 mg/dL, a GLC (72 h, time 3 day) of 179 mg/dL and an IP (72 h, time 3 day) of 9 mg/dL. For the same compound, the K (72 h, time 3 day) was 4.7 meq/L, the LDH (72 h, time 3 day) was 105.4 IU/L and the Na (72 h, time 3 day) was 139 meq/L. It also gave a PL (72 h, time 3 day) of 136.6 mg/dL, an RALB (72 h, time 3 day) of 3.9 g/dL and a TBIL (72 h, time 3 day) of 0.3 mg/dL. It also gave a TC (72 h, time 3 day) of 75.6 mg/dL, a TG (72 h, time 3 day) of 56.4 mg/dL and a TP (72 h, time 3 day) of 5.8 g/dL. For the same compound, the gamma-GTP (72 h, time 3 day) was 1.8 IU/L, the TERMINAL_BW ([…], time 7 day) was 225.8 g and the TERMINAL_BW ([…], time 14 day) was 229.7 g. The TERMINAL_BW ([…], time 28 day) was 202.6 g, the APTT ([…], time 7 day) was 15.7 s and the Bas ([…], time 7 day) was 0%. The Eos ([…], time 7 day) was 0.4%, the Fbg ([…], time 7 day) was 237.4 mg/dL and the Hb ([…], time 7 day) was 14.3 g/dL. The Ht ([…], time 7 day) was 43.1%, the Lym ([…], time 7 day) was 80.6% and the MCH ([…], time 7 day) was 20.9 pg. For the same compound, the MCHC ([…], time 7 day) was 33.3%, the MCV ([…], time 7 day) was 62.9 fL and the Mono ([…], time 7 day) was 8.8%. For the same compound, the Neu ([…], time 7 day) was 10.2%, the PT ([…], time 7 day) was 11.7 s and the Plat ([…], time 7 day) was 124 x10_4/uL. For the same compound, the RBC ([…], time 7 day) was 686.4 x10_4/ul, the Ret ([…], time 7 day) was 3.4% and the WBC ([…], time 7 day) was 73.5 x10_2/uL. The APTT ([…], time 14 day) was 15.8 s, the Bas ([…], time 14 day) was 0% and the Eos ([…], time 14 day) was 0.6%. For the same compound, the Fbg ([…], time 14 day) was 237.4 mg/dL, the Hb ([…], time 14 day) was 15.1 g/dL and the Ht ([…], time 14 day) was 44.8%. It also gave a Lym ([…], time 14 day) of 75.4%, an MCH ([…], time 14 day) of 20.1 pg and an MCHC ([…], time 14 day) of 33.7%. For the same compound, the MCV ([…], time 14 day) was 59.8 fL, the Mono ([…], time 14 day) was 14.4% and the Neu ([…], time 14 day) was 9.6%. It also gave a PT ([…], time 14 day) of 11.2 s, a Plat ([…], time 14 day) of 133.2 x10_4/uL and an RBC ([…], time 14 day) of 750 x10_4/ul. It also gave a Ret ([…], time 14 day) of 1.2%, a WBC ([…], time 14 day) of 75.3 x10_2/uL and an APTT ([…], time 28 day) of 15.2 s. For the same compound, the Bas ([…], time 28 day) was 0%, the Eos ([…], time 28 day) was 0.8% and the Fbg ([…], time 28 day) was 255.7 mg/dL. The Hb ([…], time 28 day) was 15.6 g/dL, the Ht ([…], time 28 day) was 45.3% and the Lym ([…], time 28 day) was 58.5%. It also gave an MCH ([…], time 28 day) of 18.9 pg, an MCHC ([…], time 28 day) of 34.5% and an MCV ([…], time 28 day) of 54.6 fL. The Mono ([…], time 28 day) was 22.5%, the Neu ([…], time 28 day) was 18.8% and the PT ([…], time 28 day) was 11.6 s. It also gave a Plat ([…], time 28 day) of 121.1 x10_4/uL, an RBC ([…], time 28 day) of 832.2 x10_4/ul and a Ret ([…], time 28 day) of 2.5%. It also gave a WBC ([…], time 28 day) of 114.2 x10_2/uL, a KIDNEY_L ([…], time 7 day) of 1 g and a KIDNEY_R ([…], time 7 day) of 1 g. For the same compound, the KIDNEY_TOTAL ([…], time 7 day) was 2.1 g, the KIDNEY_L ([…], time 14 day) was 1.1 g and the KIDNEY_R ([…], time 14 day) was 1.1 g. For the same compound, the KIDNEY_TOTAL ([…], time 14 day) was 2.1 g, the KIDNEY_L ([…], time 28 day) was 1.4 g and the KIDNEY_R ([…], time 28 day) was 1.3 g. The KIDNEY_TOTAL ([…], time 28 day) was 2.7 g, the LIVER ([…], time 7 day) was 10.6 g and the LIVER ([…], time 14 day) was 10.5 g. The LIVER ([…], time 28 day) was 9.5 g, the A/G ([…], time 7 day) was 1.7 and the ALP ([…], time 7 day) was 656.6 IU/L. It also gave an ALT ([…], time 7 day) of 48.4 IU/L, an AST ([…], time 7 day) of 97 IU/L and a BUN ([…], time 7 day) of 16.6 mg/dL. For the same compound, the CRE ([…], time 7 day) was 0.5 mg/dL, the Ca ([…], time 7 day) was 11.2 mg/dL and the Cl ([…], time 7 day) was 105.6 meq/L. It also gave a DBIL ([…], time 7 day) of 0.03 mg/dL, a GLC ([…], time 7 day) of 170.4 mg/dL and an IP ([…], time 7 day) of 7.3 mg/dL. The K ([…], time 7 day) was 4.7 meq/L, the LDH ([…], time 7 day) was 139.6 IU/L and the Na ([…], time 7 day) was 139.2 meq/L. The PL ([…], time 7 day) was 156 mg/dL, the RALB ([…], time 7 day) was 3.8 g/dL and the TBIL ([…], time 7 day) was 0.3 mg/dL. For the same compound, the TC ([…], time 7 day) was 98.4 mg/dL, the TG ([…], time 7 day) was 55.8 mg/dL and the TP ([…], time 7 day) was 6.1 g/dL. It also gave a gamma-GTP ([…], time 7 day) of 2.6 IU/L, an A/G ([…], time 14 day) of 1.6 and an ALP ([…], time 14 day) of 694.4 IU/L. For the same compound, the ALT ([…], time 14 day) was 101.6 IU/L, the AST ([…], time 14 day) was 223.6 IU/L and the BUN ([…], time 14 day) was 23.4 mg/dL. For the same compound, the CRE ([…], time 14 day) was 0.6 mg/dL, the Ca ([…], time 14 day) was 11.3 mg/dL and the Cl ([…], time 14 day) was 105.8 meq/L. For the same compound, the DBIL ([…], time 14 day) was 0.3 mg/dL, the GLC ([…], time 14 day) was 159.8 mg/dL and the IP ([…], time 14 day) was 6.4 mg/dL. It also gave a K ([…], time 14 day) of 4.7 meq/L, an LDH ([…], time 14 day) of 210.6 IU/L and a Na ([…], time 14 day) of 139.6 meq/L. The PL ([…], time 14 day) was 236.8 mg/dL, the RALB ([…], time 14 day) was 3.8 g/dL and the TBIL ([…], time 14 day) was 0.4 mg/dL. It also gave a TC ([…], time 14 day) of 159.8 mg/dL, a TG ([…], time 14 day) of 48.2 mg/dL and a TP ([…], time 14 day) of 6.2 g/dL. The gamma-GTP ([…], time 14 day) was 4.6 IU/L, the A/G ([…], time 28 day) was 1.3 and the ALP ([…], time 28 day) was 520.8 IU/L. It also gave an ALT ([…], time 28 day) of 153.2 IU/L, an AST ([…], time 28 day) of 484.2 IU/L and a BUN ([…], time 28 day) of 31.2 mg/dL. The CRE ([…], time 28 day) was 0.2 mg/dL, the Ca ([…], time 28 day) was 11.3 mg/dL and the Cl ([…], time 28 day) was 106.2 meq/L. The DBIL ([…], time 28 day) was 3.9 mg/dL, the GLC ([…], time 28 day) was 137 mg/dL and the IP ([…], time 28 day) was 5.9 mg/dL. The K ([…], time 28 day) was 4.8 meq/L, the LDH ([…], time 28 day) was 298.8 IU/L and the Na ([…], time 28 day) was 142.2 meq/L. It also gave a PL ([…], time 28 day) of 301 mg/dL, an RALB ([…], time 28 day) of 3.5 g/dL and a TBIL ([…], time 28 day) of 3.3 mg/dL. For the same compound, the TC ([…], time 28 day) was 207.2 mg/dL, the TG ([…], time 28 day) was 118 mg/dL and the TP ([…], time 28 day) was 6.1 g/dL. For the same compound, the gamma-GTP ([…], time 28 day) was 11.8 IU/L.
